Laboratory results published in patent US20120034641A1, “BIOLOGICAL INFORMATION ACQUISITION METHOD” (SONY CORPORATION, priority 2010, published 2012).

Experiments:
[1] = test system: three-dimensional culture skin (Kurabo; EPI-200X); test: Nicotinamide metabolites on the epidermis surface of cultured skin after adding cortisol to the culture solution; assay type: cell-based; conditions: glucocorticoid (cortisol) 50 nM or 500 nM in culture solution, sample collected from epidermis side after 1 hour
Method: Assessment was made as to the ability of a cultured skin to secrete nicotinamide metabolites on the horny layer of epidermis surface in response to cortisol or glucose. A three-dimensional culture skin (Kurabo; EPI-200X) was cultured with its dermis side in contact with the culture solution. Glucocorticoid (cortisol) was added to the culture solution to make the final concentration 50 nM or 500 nM. After 1 hour, 150 μL of PBS was contacted to the epidermis side, and the sample was collected. The amounts of NAD+, NADH, NADP+, and NADPH in the sample were then measured using commercially available colorimetric analysis kits (Amplite Colorimetric NAD/NADH Assay Kit, Amplite Colorimetric NADP/NADPH Assay Kit; ABD Bioquest Inc.).

[2] = intake of alcohol while eating vs no alcohol; FIG. 10
Method: The tip of index finger was gently wiped with a paper towel soaked with pure water. The bottom end of a microtube containing 50 μL of pure water was held with the thumb, with the upper opening of the microtube in contact with the tip of the index finger (see FIG. 1A). With the microtube held with the index finger and the thumb, the microtube was inverted to contact the pure water to the skin surface of the index finger for 1 minute.
Eleven subjects were allowed to eat the same food during the time period of from 12:00 to 13:00, and the epidermal fluid was collected at 12:00, 13:00, 14:00, 15:00, and 16:00.

## C[C@]12CCC(=O)C=C1CC[C@@H]1[C@@H]2[C@@H](O)C[C@@]2(C)[C@H]1CC[C@]2(O)C(=O)CO [glucocorticoid, cortisol]
[1]; FIG. 12A
  NAD+/NADH ratio: increased concentration dependently
[1]; FIG. 12B
  NADP+/NADPH ratio: no change

## CCO [alcohol]
[2]
  transient increase in NAD+/NADH ratio in epidermal fluid: more enhanced
